Tests used:
[1] = system: C. reinhardtii CC-1928; assay: Effect of copper on activity of hydrazones: in vitro growth inhibition of C. reinhardtii in TAP Cu minus / TAP Cu plus medium (Example 10); assay type: cell-based, Chlamydomonas reinhardtii; details: test compound 1 μg/mL, 48 h; for inhibition of growth at 1 µg/mL: Chlamydomonas reinhardtii, TAP Cu minus medium, read-out: % Inhn. Minus Copper Observed; for % Inhn. Plus Copper Observed: TAP Cu plus medium (CuCl2)
Experimental: In vitro toxicity assays against C. reinhardtii CC-1928 (wild type mt+137c green in dark subclone) obtained from the Chlamydomonas Resource Center at Duke University were conducted using TAP liquid growth medium described by Gorman and Levine Proc. Natl. Acad. Sci. USA 1965, 54, 1665-1669 except that CuSO4.5H2O, normally included as a component of Hutner's trace element stock solution (Hutner et al. Proc. Am. Philos. Soc. 1950, 94, 152-170), was omitted. The TAP medium lacking Cu (TAP Cu minus) was prepared by adding 400 mg NH4Cl, 10 mL of 100× Tris-Acetate (242 g Tris-base and 100 mL glacial acetic acid in 1000 mL milli Q water), and 8.3 mL of 120.5× phosphate buffer (14.34 g K2HPO4 and 7.26 g KH2PO4 in 1000 mL milli Q water) to milli Q water to make a total volume of 1 liter. The medium was treated with 0.5 g Chelex 100 resin (Bio-Rad Analytical grade, 50-100 mesh, sodium form, cat#142-2822) by stirring at room temperature for 1 hour. 900 mL were decanted and 45.9 mg of CaCl2.2H2O, 90 mg of MgSO4.7H2O and 0.9 mL Hutner's trace elements lacking CuSO4.5H2O were added and the solution was filter-sterilized. Medium containing copper (TAP Cu plus) was prepared by adding CuCl2.2H2O to the TAP Cu minus medium at 20 μM. Test compounds were dissolved in dimethylsulfoxide (DMSO) at 2 mg/mL then dilutions in TAP Cu minus and TAP Cu plus media were prepared in sterilized microcentrifuge tubes at 2 μg/mL. 100 μL aliquots of diluted compound were dispensed into flat-bottomed 96-well microtiter plates. C. reinhardtii was maintained under 12 h of light on TAP agar plates at 18° C. A loopful of cells was added to 50 mL of TAP Cu minus medium and the culture incubated with shaking at 200 rpm at 27° C. for 24 h. The culture (10 to 20 mL aliquot) was centrifuged in a bench centrifuge at 2000 rpm for 2 min. The resulting cell pellet was resuspended in 5 mL sterile milli Q water (which had been treated with Chelex 100 resin using 0.5 g resin per liter of water by stirring at room temperature for 1 h), and recentrifuged. The cells were resuspended in TAP Cu minus medium, and the suspension adjusted to 2×10^5 spores per mL. Microtiter plates containing compounds as described above were inoculated with 100 μL of this cell suspension and the plates incubated at 27° C. for 48 h before assessing algal growth by measuring light scattering in a NepheloStar plate-reader. Growth inhibition was determined by comparing growth in the presence of test compound with growth in control wells lacking test compound. Results for growth inhibition by test compounds at 1 μg/mL in TAP Cu plus medium (% Inhn Plus Copper Observed) were compared with predicted values (% Inhn Plus Copper Predicted) that were calculated using the formula set forth by S. R. Colby in Weeds 1967, 15, 20-22 based on results obtained for the same compounds in TAP Cu minus medium (% Inhn Minus Copper Observed). […] Results illustrate that hydrazones and copper produce a synergistic algicidal effect towards C. reinhardtii.

[2] = system: Synechocystis sp. strain 6803; assay: Effect of copper on activity of hydrazones: in vitro growth inhibition of Synechocystis in BG-11 Cu minus / Cu plus medium (Example 11); assay type: cell-based; details: 72 h; for % Inhn. Plus Copper Observed: BG-11 Cu plus medium
Experimental: In vitro toxicity assays against the cyanobacterium (blue-green alga) Synechocystis sp. strain 6803 were conducted using BG-11 medium except that copper micronutrient, normally included as CuSO4.5H2O, was omitted. The medium, termed BG-11 Cu minus, was prepared by dissolving 1.5 g NaNO3, 40 mg K2HPO4, 6 mg citric acid, 1 mg Na2EDTA and 20 mg Na2CO3 in 1 liter of milli Q water and treating the solution with 0.5 g Chelex 100 resin (Bio-Rad Analytical grade, 50-100 mesh, sodium form, cat#142-2822) by stifling at room temperature for 1 h. 900 mL were decanted and 67.5 mg MgSO4.7H2O, 32.4 mg […], 5.4 mg ferric ammonium citrate and 0.9 mL trace metal mix A5 without copper (2.86 g H3BO3, 1.81 g MnCl2.4H2O, 222 mg ZnSO4.7H2O, 390 mg Na2MoO4.2H2O and Co(NO3)2.6H2O in 1 L Milli Q water) was added. The pH was adjusted to 7.1 and the medium was filter-sterilized. Medium containing copper (BG-11 Cu plus) was prepared by adding CuCl2.2H2O to the BG-11 Cu minus medium at 0.2 μM. Test compounds were dissolved in dimethylsulfoxide (DMSO) at 2 mg/mL then appropriate dilutions in BG-11 Cu minus and BG-11 Cu plus media were prepared in sterilized microcentrifuge tubes. 100 μL aliquots were dispensed into flat-bottomed 96-well microtiter plates. Synechocystis was maintained under 24 h of light on BG-11 agar plates at 27° C. A loopful of cells was added to 50 mL of BG-11 Cu minus growth medium and the culture was incubated with shaking at 200 rpm at 27° C. for 24 h. The culture (10 to 20 mL aliquot) was centrifuged in a bench centrifuge at 2400 rpm for 2 min. The resulting cell pellet was resuspended in 5 mL sterile milli Q water (which had been treated with Chelex 100 resin using 0.5 g resin per liter of water by stirring at room temperature for 1 h), and recentrifuged. The cells were resuspended in BG-11 Cu minus medium, and the suspension adjusted to 4×10^5 spores per mL. Microtiter plates containing compounds as described above were inoculated with 100 μL of this cell suspension and the plates incubated at 27° C. for 72 h before assessing algal growth by measuring light scattering in a NepheloStar plate reader. Growth inhibition was determined by comparing growth in the presence of test compound with growth in control wells lacking test compound. Results for growth inhibition by test compounds in BG-11 Cu plus medium (% Inhn Plus Copper Observed) were compared with predicted values (% Inhn Plus Copper Predicted) that were calculated using the formula set forth by S. R. Colby in Weeds 1967, 15, 20-22 based on-results obtained for the same compounds in BG-11 Cu minus medium (% Inhn Minus Copper Observed) and the inhibition attributed to copper chloride alone, as determined by comparing growth in copper-minus and copper-plus media without any test compound across experiments. Results illustrate that hydrazones and copper produce a synergistic algicidal effect towards Synechocystis.

[3] = Synechocystis, Test Concn. 0.05 μg/mL, BG-11 Cu minus medium, read-out: % Inhn. Minus Copper Observed
[4] = Synechocystis, Test Concn. 0.00625 μg/mL, BG-11 Cu minus medium, read-out: % Inhn. Minus Copper Observed

| Structure (SMILES) | inhibition of growth at 1 µg/mL [1] [%] | % Inhn. Plus Copper Observed [1] [%] | inhibition of growth at 0.05 µg/mL [2, 3] [%] | % Inhn. Plus Copper Observed ([2]; Test Concn. 0.05 μg/mL) [%] | melting point [°C] | inhibition of growth at 0.00625 µg/mL [2, 4] [%] | % Inhn. Plus Copper Observed ([2]; Test Concn. 0.00625 μg/mL) [%] | inhibition of growth at 0.0125 µg/mL ([2]; Synechocystis, Test Concn. 0.0125 μg/mL, BG-11 Cu minus medium, read-out: % Inhn. Minus Copper Observed) [%] | % Inhn. Plus Copper Observed ([2]; Test Concn. 0.0125 μg/mL) [%] |
| --- | --- | --- | --- | --- | --- | --- | --- | --- | --- |
| C/C(=N\NC(=O)c1ccccc1)c1ccccc1O [Compound 2] | 10 | 95 | -8 | 97 | 185 to 187 | – | – | – | – |
| O=C(N/N=C/c1cc(Cl)ccc1O)c1ccccc1 [Compound 3] | 25 | 62 | -17 | 96 | – | – | – | – | – |
| O=C(N/N=C/c1cc(Cl)cc(Cl)c1O)c1ccc(F)cc1 [Compound 4] | 12 | 92 | -14 | 96 | – | – | – | – | – |
| C/C(=N\NC(=O)c1ccccc1Br)c1cc(Cl)cc(Cl)c1O [Compound 5] | 26 | 95 | -10 | 91 | 220 to 222 | – | – | – | – |
| O=C(N/N=C/c1cc(Cl)cc(Cl)c1O)c1cccc(Cl)c1 [Compound 8] | 15 | 92 | 62 | 92 | – | – | – | – | – |
| O=C(N/N=C/c1cc(Cl)cc(Cl)c1O)c1ccc(Br)cc1 [Compound 9] | 7 | 90 | – | – | – | 15 | 74 | – | – |
| O=C(N/N=C/c1cc(Cl)cc(Cl)c1O)c1ccc2ccccc2c1 [Compound 10] | 24 | 93 | 44 | 95 | 215 to 217 | – | – | – | – |
| O=C(N/N=C/c1cc(Br)cc(Br)c1O)c1ccccc1 [Compound 11] | 31 | 96 | 50 | 97 | – | – | – | – | – |
| C/C(=N\NC(=O)Cc1ccccc1)c1cc(Cl)cc(Cl)c1O [Compound 13] | 17 | 96 | 22 | 96 | 199 to 204 | – | – | – | – |
| Cc1ccccc1C(=O)N/N=C/c1cc(Cl)cc(Br)c1O [Compound 16] | -3 | 95 | -5 | 94 | – | – | – | – | – |
| O=C(N/N=C/c1cc(Cl)cc(Br)c1O)c1cccc(Br)c1 [Compound 17] | 32 | 83 | – | – | – | 59 | 72 | – | – |
| COc1cc(Br)cc(/C=N/NC(=O)c2cccc(Br)c2)c1O [Compound 19] | 12 | 52 | -18 | 43 | – | – | – | – | – |
| COc1cc(Br)cc(/C=N/NC(=O)c2ccc(C)cc2)c1O [Compound 20] | -6 | 94 | 9 | 86 | – | – | – | – | – |
| O=C(N/N=C/c1cc(Cl)cc(Cl)c1O)c1cccc(C(F)(F)F)c1 [Compound 22] | -14 | 96 | 48 | 94 | 165 to 169 | – | – | – | – |
| C/C(=N\NC(=O)c1ccc(Cl)cc1)c1cccc([N+](=O)[O-])c1O [Compound 23] | -37 | 89 | – | – | 241 to 251 | – | – | 27 | 92 |
| O=C(N/N=C/c1c(O)cccc1Cl)c1ccc([N+](=O)[O-])cc1 [Compound 49] | 33 | 93 | – | – | > 300 | – | – | – | – |
| O=C(N/N=C/c1c(O)cccc1Cl)c1cccc(F)c1 [Compound 69] | – | – | – | – | 257 to 259 | – | – | – | – |
| O=C(N/N=C/c1c(O)cccc1Cl)c1ccc(Cl)cc1 [Compound 70, 4-chlorobenzoic acid [1-(2-chloro-6-hydroxyphenyl)-methylidene]-hydrazide] | – | – | – | – | 273 to 277 | – | – | – | – |
| O=C(N/N=C/c1cc(C(F)(F)F)ccc1O)c1ccccc1O [Compound 71] | – | – | – | – | 277 to 281 | – | – | – | – |
